Test results from US4049829A, “Sulphur containing hydroxy aliphatic compounds” (Societe anonyme dite: Laboratoire L. Lafon, priority 1974, dated 1977).
Counter-ions that a name gives are not always drawn.

Columns and labels:
[1] = Overall activity from both experimental standards I and II; assay type: in vivo, Wistar rats; settings: for product activity: of the order of
Description: The hypolipaemiant properties of the CRL 40 122 have been studied in rats according to two different standard experiments:
The experiment was conducted for two weeks on Wistar rats, subjected to a daily hyperlipidic diet at the dose of about 20 g for an animal of 150 g in average.
The activity of the product studied was determined by comparison with normal control groups of rats and with groups of rats subjected to a hyperlipidic diet and not treated. For each dose of CRL 40 122 there were three groups of five animals each (control group, group only receiving the hyperlipidic diet, and treated group). The results obtained correspond to the average of each of the series. A very interesting activity of CRL 40 122 appeared at active doses of 10 mg to 50 mg/kg in rats subjected to a hyperlipidic diet (decrease from 64 to 34% of the rate of blood lipids according to dose; decrease of cholesterol from 68 to 41%).
(§1) The experiment was carried out over five days on normal male Wistar rats. The animals, numbering 8 per dose of the product to be studied, were treated orally daily, the last feed taking place 3 hours before the animals were killed. Each series was divided into two groups of animals: one group killed after 3 days of experiment; the other group killed after 5 days of experiment.
The results were determined by comparison with 8 normal rats subjected to the same experimental conditions and not treated.
Overall these tests led to the following conclusions:
1. The two experimental standards, although very different give rise to a product activity of the order of: […]

[2] = Human therapeutics: patients suffering from hyperlipaemia and hypercholesterolaemia; assay type: in vivo
rats = assay: Acute toxicity by oral dose, rats; assay type: in vivo; settings: up to a dose of 5 g/kg
Source text: (§2) The product is not toxic. The experiments relating to acute toxicity by oral dose for mice and rats have given evidence that there is no mortality amongst animals treated up to a dose of 5 g/kg.

[3] = Experimental standard II: normal rats, five days oral treatment; assay type: in vivo, normal male Wistar rats; settings: oral dose of 20 mg/kg, vs untreated normal rats
Description: as §1, with “The hypolipaemiant properties of the CRL 40 122 have been studied in rats according to two different standard experiments: A study on normal Wistar rats (standard II). The experiment” for “The experiment”, “of experiment. The results were determined by comparison with 8 normal rats subjected to the same experimental conditions and not treated.” for “of experiment.”

mice = assay: Acute toxicity by oral dose, mice; assay type: in vivo
Source text: as §2

[4] = Solubility (stated with the preparation); assay type: physicochemical
[5] = Hypolipidic activity in rats on hyperlipidic diet (Table IV); assay type: in vivo; design: Burstein Test: unit not given here; settings: for Total Cholesterol / Total Lipids / Burstein Test, % inhibition / Total Cholesterol, % inhibition / Total Lipids, % inhibition / Burstein Test: Table IV; for Burstein Test, % inhibition / Total Cholesterol, % inhibition / Total Lipids, % inhibition: normal = 100%, hyperlipidic = 0%
Source text: In Table IV below the following results have been obtained.
A -- in rats receiving a normal diet (percentage inhibition = 100%);
B -- in rats receiving a hyperlipidic diet (percentage inhibition = 0%);
C -- in rats receiving the same hyperlipidic diet B with a daily dose of 0.1 g/kg of a reference normolipidemiant LIPAVLON [ethyl-2-(p-chlorophenoxy)-2-methylpropionate; International name: CLOFIBRATE];
D -- in rats receiving the same hyperlipidic diet B with a daily dose of 0.1 g/kg of a reference normolipidemiant ATHEROLIP [aluminium salt of 2-(p-chlorophenoxy)-2-methylpropionic acid];
E -- in rats receiving the same hyperlipidic diet B with a daily dose of 0.1 g/kg of a reference normolipidemiant, LL 1558 [1,10-bis(2-hydroxyethyl-thio)decane];
F -- in rats receiving the same hyperlipidic diet B with a daily dose 0.010 g/kg, 0.025 g/kg or 0.050 g/kg of CRL 40046.
The averages of the tests effected on CRL 40 055 in three different doses and calculated comparatively to reference products corresponding to various experiments allow an activity of the product to be concluded as follows: […]

[6] = total dose of 400 mg per day, capsules of 100 mg and 200 mg
[7] = first experiment, hyperlipidic diet + product 0,1g/kg daily
[8] = first experiment, hyperlipidic diet + product 0,050g/kg daily
[9] = second experiment, hyperlipidic diet + product 0,025g/kg daily
[10] = third experiment, hyperlipidic diet + product "010g/kg" daily
[11] = second experiment, hyperlipidic diet + product 0,1g/kg daily
[12] = third experiment, hyperlipidic diet + product 0,1g/kg daily

## CC(CO)SCCCCCCCCCCSC(C)CO (racemic) [CRL 40 122, (±)-2,15-Dimethyl-3,14-dithia-1,16-hexadecanediol]
[1]
  appearance of activity (onset): after the third day of treatment
[1]; dose of 10 mg/kg
  product activity: ~20%
[1]; dose of 20 mg/kg
  product activity: ~30%
[1]; dose of 50 mg/kg
  product activity: ~60%
[2]; capsules dosed at 100 mg and at 200 mg
  use in human therapeutics (in words): used with success
[2]; [6]
  hypercholesterolaemia: decrease after several days of treatment
  hyperlipaemia: decrease after several days of treatment
rats
  mortality: no mortality
[3]
  decrease in cholesterol: 23%
  decrease in total lipids: 31%
mice; acute oral, mice and rats
  toxicity (in words): not toxic
mice; oral, mice, up to a dose of 5 g/kg
  mortality: no mortality
[4]
  solubility in water: insoluble

## CC(C)(Oc1ccc(Cl)cc1)C(=O)O [Atherolip, aluminium salt of 2-(p-chlorophenoxy)-2-methylpropionic acid]
[5]; [7]
  Total Cholesterol: 2.08 g/L
  Total Lipids: 6.8 g/L
  Burstein Test, % inhibition: 67%
  Total Cholesterol, % inhibition: 59%
  Total Lipids, % inhibition: 49%

## CC(C)(CO)SCCCCCCCCCCSC(C)(C)CO [CRL 40 055, 2,2,15,15-Tetramethyl-3,14-dithia-1,16-hexadecanediol]
[5]; [8]
  Burstein Test: 64
  Total Cholesterol: 2.29 g/L
  Total Lipids: 7.45 g/L
  Burstein Test, % inhibition: 58%
  Total Cholesterol, % inhibition: 51%
  Total Lipids, % inhibition: 41%
[5]; [9]
  Burstein Test: 82
  Total Cholesterol: 2.43 g/L
  Total Lipids: 8.06 g/L
  Burstein Test, % inhibition: 30%
  Total Cholesterol, % inhibition: 53%
  Total Lipids, % inhibition: 37%
[5]; [10]
  Total Cholesterol: 3.81 g/L
  Total Lipids: 11.3 g/L
  Burstein Test, % inhibition: 0%
  Total Cholesterol, % inhibition: 0%
  Total Lipids, % inhibition: 0%
[5]; dose of 0.010 g/kg
  activity (in words): the activity appears to have completely disappeared
[5]; dose of 0.025 g/kg vs reference products at 0.1 g/kg
  activity as compared with the reference products (in words): substantially constant activity as compared with the reference products
[4]
  solubility in water: insoluble

## OCCSCCCCCCCCSCCO [CRL 40 077, 1,8-Bis(2-hydroxyethyl-thio)-octane]
[4]
  solubility in alcohol: soluble
  solubility in water: insoluble

## OCCSCCCCCCSCCO [CRL 40 085, 1,6-Bis(2-hydroxyethyl-thio)-hexane]
[4]
  solubility in alcohol: soluble
  solubility in water: insoluble

## OCCSCCCCCCCCCSCCO [CRL 40 116, 1,9Bis(2-hydroxyethylthio)-nonane]
[4]
  solubility in alcohol: soluble
  solubility in water: insoluble

## OCCSCCCCCCCSCCO [CRL 40 120, 1,7-Bis(2-hydroxyethyl-thio)-heptane]
[4]
  solubility in alcohol: soluble
  solubility in water: insoluble

## OCC(O)CSCCCCCCCCCCSCC(O)CO (centres unmarked) [CRL 40 155, 1,10-Bis(2,3-dihydroxypropyl-thio)decan]
[4]
  solubility in water: insoluble

## OCCC(CO)SCCCCCCCCCCSC(CO)CCO (centres unmarked) [CRL 40 176, 1,18-Dihydroxy-3,16-di(hydroxymethylene)-4,15-dithia-octadecane]
[4]
  solubility in water: insoluble

## CC(CO)SCCCCCCCCCSC(C)CO (centres unmarked) [CRL 40 193, 2,14-Dimethyl-3,13-dithia-1,15-pentadecanediol]
[4]
  solubility in water: insoluble

## OCCSCCCCCCCCCCCSCCO [CRL 40 194, 1,11-Bis-(2-hydroxyethyl-thio)-undecane]
[4]
  solubility in water: insoluble

## OCCSCCCCCCCCCCSCCO [LL 1558, 1,10-bis(2-hydroxyethyl-thio)decane]
[5]; [11]
  Burstein Test: 38
  Total Cholesterol: 1.33 g/L
  Total Lipids: 5.1 g/L
  Burstein Test, % inhibition: 87%
  Total Cholesterol, % inhibition: 85%
  Total Lipids, % inhibition: 82%
[5]; [12]
  Burstein Test: 37
  Total Cholesterol: 1.33 g/L
  Total Lipids: 4.5 g/L
  Burstein Test, % inhibition: 85%
  Total Cholesterol, % inhibition: 70%
  Total Lipids, % inhibition: 77%

## CCOC(=O)C(C)(C)Oc1ccc(Cl)cc1 [Lipavlon, ethyl-2-(p-chlorophenoxy)-2-methylpropionate]
[5]; [7]
  Total Cholesterol: 2.47 g/L
  Total Lipids: 7.75 g/L
  Burstein Test, % inhibition: 49%
  Total Cholesterol, % inhibition: 46%
  Total Lipids, % inhibition: 37%
[5]; [11]
  Total Cholesterol: 3 g/L
  Total Lipids: 9.2 g/L
  Burstein Test, % inhibition: 27%
  Total Cholesterol, % inhibition: 36%
  Total Lipids, % inhibition: 20%
[5]; [12]
  Total Cholesterol: 1.58 g/L
  Total Lipids: 7.3 g/L
  Burstein Test, % inhibition: 25%
  Total Cholesterol, % inhibition: 60%
  Total Lipids, % inhibition: 22%
